Test results published in patent US5871954A, “Fatty acid analog enzyme substrates” (Washington University, priority 1993, dated 1999).

Experiments:
yeast NMT = target: T1, yeast NMT (Saccharomyces cerevisiae, UniProt P14743); assay: in vitro yeast NMT assay, kinetics of fatty acid analog substrates with iodinated peptide GNAAS[125I]YRR; assay type: biochemical; details: Table 2; relative to myristate control 100%; peptide at its Km
T1 construct: 11,000-fold purified preparation of yeast NMT; from tissue; host or cells: yeast
T1 sequence (P14743 1-455): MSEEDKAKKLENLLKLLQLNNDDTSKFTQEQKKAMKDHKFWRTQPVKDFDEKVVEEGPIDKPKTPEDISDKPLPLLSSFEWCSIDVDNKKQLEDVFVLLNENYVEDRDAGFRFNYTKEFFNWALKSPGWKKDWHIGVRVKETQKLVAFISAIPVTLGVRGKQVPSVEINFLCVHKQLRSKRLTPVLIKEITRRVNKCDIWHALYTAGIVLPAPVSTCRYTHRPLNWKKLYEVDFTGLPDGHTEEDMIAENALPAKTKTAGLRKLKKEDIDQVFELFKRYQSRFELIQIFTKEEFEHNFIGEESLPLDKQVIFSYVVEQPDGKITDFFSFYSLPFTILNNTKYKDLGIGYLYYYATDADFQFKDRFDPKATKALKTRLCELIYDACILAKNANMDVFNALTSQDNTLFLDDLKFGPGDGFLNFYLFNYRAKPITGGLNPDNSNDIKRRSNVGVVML
Description: Similar results were obtained using an 11,000-fold purified preparation of yeast NMT [Towler et al., Proc. Natl. Acad. Sci. USA 84, 2708-2712 (1987)].
Other illustrative examples of the oxy- and thio-substituted fatty acid analog substrate compounds of the invention were synthesized in Examples 6 to 14 and tested in Example 15 as substrates for the yeast NMT.
(§1) For these Examples, each analog synthesized is characterized by ^1 H and 13C NMR as well as mass spectroscopy. The analogs are then characterized kinetically as NMT substrates. Briefly, fatty acid analogs are converted to their CoA esters with Pseudomonas CoA ligase and incubated with the iodinated peptide GNAAS[^125 I]YRR and a source of NMT. […] The radiolabelled peptide is then used at concentrations which will lead to 50% enzyme saturation (i.e., at its Km) for the determination of fatty acid analog kinetic characteristics. Representative analogs with sulfur or oxygen in the backbone of the fatty acid chain serve as good substrates for NMT in vitro and will compete for incorporation of ^3 H labelled myri-state into yeast proteins in vivo. In addition, these analogs differ markedly in hydrophobicity from myri-state as measured both by C18 reverse phase HPLC elution profiles and by 2-octanol/water partition coefficients. The analog CH3 O (CH2)11 COOH, for example, partitions into water 20 fold better than myristate. It is believed that these analogs will be incorporated into mammalian acylproteins in vivo and that their incorporation into these proteins will drastically alter protein processing or targeting. It is further believed that the incorporation of fatty acid analogs of both myristate and palmitate into ester linked and phosphatidyl inositol glycan linked acylproteins will also dramatically alter their properties. Since many viral proteins and oncogenes are acylated, these compounds represent a new class of potential antiviral and antineoplastic agents.

[1] = 2-octanol/water partition; assay type: physicochemical
Description: as §1, with “It is further believed that the incorporation of fatty acid analogs of both myristate and palmitate into ester linked and phosphatidyl inositol glycan linked acylproteins will also dramatically alter their properties. Since many viral proteins and oncogenes are acylated, these compounds represent a new class of potential antiviral and antineoplastic agents.” left out

[2] = test system: known yeast myristoylprotein of Mr 20 kDa; assay: competition for incorporation of [3H]myristate into a yeast myristoylprotein; assay type: cell-based, Saccharomyces cerevisiae strain BJ405; details: in words
Description: (§2) Saccharomyces cerevisiae strain BJ405 [MATα, trpl, prbl, prcl, pep4-3; Hemmings et al., Proc. Natl. Acad. Sci. USA 78, 435-439 (1981)] (previously referred to as JR153) was grown to mid-log phase (OD660nm=1.0-1.2) in YPD medium (1% yeast extract/2% Bactopeptone/2% Dextrose) at 30° C. in a rotary shaker water bath. Cells were pretreated with Cerulenin at 2 μg/ml for 15 minutes and then incubated for 20-45 minutes with unlabeled myristate, palmitate or fatty acid analog at 100 μM in the presence of either 5 μM [9,10-^3 H(N)]-myristate (22.4 Ci/mmol) or L-[^35 S]methionine (1106 Ci/mmol) at 30 μCi/ml of culture.
Cells were cooled on ice 5 minutes, pelleted at 10,000×g, then broken and extracted by the method of Towler et al., Proc. Natl. Acad. Sci. USA 83, 2812-2816 (1986). Total protein synthesis was assayed by trichloroacetic acid (TCA) precipitation. Proteins were separated by SDS-12% polyacrylamide gel electrophoresis, and [^3 H]fatty acid incorporation into cellular acyl-proteins was assayed by autoradiography followed by laser densitometry.

[3] = test system: Saccharomyces cerevisiae strain BJ405; assay: toxicity / growth rate of yeast cells; assay type: cell-based
Description: as §2
Furthermore, 100 μM myristate and 100 μM analog produced a similar modest reduction (10-15%) in total protein synthesis (measured by the incorporation of [^35 S]methionine into TCA precipitable protein) compared to control cells which were not exposed to exogenous fatty acid.

COCCCCCCCCCCCC(=O)O [CH3 O(CH2)11 COOH, 12-(Methoxy)dodecanoic acid]
Acyl CoA Vm (yeast NMT): ~ 110%
partition into water vs myristate [1]: 20 fold
entry into yeast / competition with labeled myristate for incorporation into yeast protein [2]: can successfully enter yeast and compete with labeled myristate for incorporation into a known myristoylprotein
growth rates of cells vs 100 μM myristate [3]: No difference in the growth rates
toxicity to cells ([3]; 100 μM): does not appear to be toxic to cells
